Data from patent publication US9751845B2, “5-HT2B antagonists” (National Institute of Biological Sciences, Beijing, priority 2014, dated 2017).

Target: T1, 5-HT2B Receptors (Homo sapiens, UniProt P41595)
T1 construct: expressed in transfected cells
Test: Antagonist activity assay (FLIPR, CHO-K1/5-HT2B stable cell line)
Type: cell-based
Conditions: for inhibition at 1 µM: 1 μM compound, CHO-K1/5-HT2B cells stimulated with 12 nM (EC80) 5-HT; for IC50: CHO-K1/5-HT2B cells, antagonist mode vs EC80 5-HT
Description: Briefly, CHO-K1 cells expressing 5-HT2B were seeded in a 384-well black-wall, clear-bottom plate at a density of 20,000 cells per well in 20 μL of growth medium (10% dialyzed FBS+90% F12), 18 hours prior to the day of experiment and maintained at 37° C./5% CO2. 20 μL of dye-loading solution and 10 μL of tested compound solution (at concentrations five times to the final assay concentrations) were added into the well. Then the plate was placed into a 37° C. incubator for 60 minutes, followed by 15 minutes at room temperature. At last, 12.5 μL of control agonist (at concentrations five times to the EC80 concentrations) was added. The control agonist was added to reading plate at 20 s and the fluorescence signal was monitored for an additional 100 s (21 s to 120 s). In screening, cells stimulated with assay buffer (HBSS-HEPES) containing 0.1% DMSO were chosen as background; cell stimulated with 12 nM (EC80 of the cell line) of 5-HT were chosen as the agonist control; cell treated with SB206553 were chosen as positive control of the screening.
Data acquisition and analyses are performed using ScreenWorks (version 3.1) program. The average fluorescent intensity value during 1 s to 20 s calculated as the baseline reading. The relative fluorescent units (ΔRFU) intensity values were calculated with the maximal fluorescent units (21 s to 120 s) subtracting the average value of baseline reading. The % inhibition of the test article is calculated from the following equation: % inhibition=[1−(ΔRFUCompound−ΔRFUBackground)/(ΔRFUAgonist control−ΔRFUBackground)]*100

T1 sequence (P41595 whole entry): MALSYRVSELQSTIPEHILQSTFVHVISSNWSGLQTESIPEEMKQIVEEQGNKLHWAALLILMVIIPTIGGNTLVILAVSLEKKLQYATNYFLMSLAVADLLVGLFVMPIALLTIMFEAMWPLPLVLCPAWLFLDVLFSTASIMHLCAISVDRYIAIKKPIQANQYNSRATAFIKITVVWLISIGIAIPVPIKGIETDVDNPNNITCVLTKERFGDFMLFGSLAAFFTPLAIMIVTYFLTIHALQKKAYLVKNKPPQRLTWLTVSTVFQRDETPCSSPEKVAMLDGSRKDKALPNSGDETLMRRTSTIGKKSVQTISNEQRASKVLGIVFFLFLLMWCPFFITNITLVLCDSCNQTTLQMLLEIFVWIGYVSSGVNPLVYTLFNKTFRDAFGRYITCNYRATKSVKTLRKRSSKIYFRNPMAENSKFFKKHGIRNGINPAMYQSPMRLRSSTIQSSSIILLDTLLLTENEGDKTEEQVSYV

| SMILES | inhibition at 1 µM | IC50 |
| --- | --- | --- |
| NC1=NC2(CCCCC2)NC(Nc2cccc(C(=O)O)c2)=N1 [3-h] | < 50% |  |
| Cc1ccc(C)c(NC2=NC(N)=NC3(CCCC3)N2)c1 [2-c] | < 50% |  |
| CCNC(=O)c1cccc(NC2=NC(N)=NC3(CCCCC3)N2)c1 [3-j, 3-(4-amino-1,3,5-triazaspiro[5.5]undeca-2,4-dien-2-ylamino)-N-ethylbenzamide] | 95.5 ± 4.8% | 104 nM |
| CCN(CC)C(=O)c1cccc(NC2=NC(N)=NC3(CCCCC3)N2)c1 [3-l] | < 50% |  |
| CC1(C)N=C(N)N=C(Nc2ccc(Br)cc2)N1 [1-e] | < 50% |  |
| CC1(C)N=C(N)N=C(Nc2cccc(Br)c2)N1 [1-c] | 75.9 ± 11.5% | 328 nM |
| CCOC(=O)c1cccc(NC2=NC(N(C)C)=NC3(CCCCC3)N2)c1 [3-y] | 91.8 ± 0.4% | 284 nM |
| COc1cccc(NC2=NC(N)=NC3(CCCCC3)N2)c1 [3-g] | 84.6 ± 1.2% | 280 nM |
| COc1ccccc1NC1=NC(N)=NC2(CCCC2)N1 [1-h] | < 50% |  |
| CC1(C)N=C(N)N=C(Nc2ccc(Cl)cc2)N1 [1-d] | 93.1 ± 4.2% | 1640 nM |
| COc1cccc(NC2=NC(N)=NC3(CCCC3)N2)c1 [2-a] | 63.4 ± 15.1% | 1060 nM |
| NC1=NC2(CCCCC2)NC(Nc2cccc(Cl)c2)=N1 [3-e1] | ~95.5% |  |
| CC1(C)N=C(N)N=C(Nc2ccccc2)N1 [1-a] | < 50% |  |
| Cc1ccccc1NC1=NC(N)=NC2(CCCCC2)N1 [3-b] | < 50% |  |
| NC1=NC2(CCCCC2)NC(Nc2cccc(I)c2)=N1 [3-f] | 102 ± 4.5% |  |
| Cc1cccc(NC2=NC(N)=NC3(CCCC3)N2)c1 [1-i] | < 50% |  |
| COc1ccccc1NC1=NC(N)=NC(C)(C)N1 [1-b] | < 50% |  |
| Cc1cccc(C)c1NC1=NC(N)=NC2(CCCC2)N1 [2-d] | < 50% |  |
| CC1(C)N=C(N)N=C(Nc2ccc(I)cc2)N1 [1-f] | < 50% | 2510 nM |
| COc1ccccc1NC1=NC(N)=NC2(CCCCC2)N1 [3-c] | < 50% |  |
| CCOC(=O)c1cccc(NC2=NC(N)=NC3(CCCCC3)N2)c1 [3-i] | 107.2 ± 0.6% | 27.3 nM |
| NC1=NC2(CCCCC2)NC(Nc2ccccc2)=N1 [3-a] | < 50% |  |
| CCOc1ccc(NC2=NC(N)=NC(C)(C)N2)cc1 [1-g] | < 50% |  |
| NC1=NC2(CCCC2)NC(Nc2ccc(F)cc2)=N1 [2-b] | < 50% |  |
| NC1=NC2(CCCCC2)NC(Nc2ccc(Cl)cc2)=N1 [3-n] | 57.2 ± 5.4% | 531 nM |
| CCCOC(=O)c1cccc(NC2=NC(N)=NC3(CCCCC3)N2)c1 [3-k] | 110 ± 2.7% | 18.1 nM |
| NC1=NC2(CCCCC2)NC(Nc2cccc(F)c2)=N1 [3-d] | 90.9 ± 2.9% |  |
| NC1=NC2(CCCCC2)NC(Nc2cccc(Br)c2)=N1 [3-e2] | 97.4 ± 2.2% | 33.4 nM |

Further lines, results first:

| inhibition at 1 µM | IC50 | SMILES |
| --- | --- | --- |
| 66.5 ± 2.1% |  | NC1=NC2(CCCCC2)NC(Nc2ccc(F)c(F)c2)=N1 [3-r] |
| 95.7 ± 1.9% | 177 nM | Cc1ccc(NC2=NC(N)=NC3(CCCCC3)N2)cc1C [3-s] |
| < 50% |  | NC1=NC2(CCCCC2)NC(Nc2ccc(F)cc2F)=N1 [3-q] |
| < 50% |  | CN(C)c1ccc(NC2=NC(N)=NC3(CCCCC3)N2)cc1 [3-o] |
| 81.1 ± 6.7% | 622 nM | COc1ccc(OC)c(NC2=NC(N)=NC3(CCCCC3)N2)c1 [3-u] |
| 106 ± 0.8% | 35.8 nM | CCCC(=O)c1cccc(NC2=NC(N)=NC3(CCCCC3)N2)c1 [3-z] |
| 92.8 ± 3.1% |  | CCOC(=O)c1cc(NC2=NC(N)=NC3(CCCCC3)N2)cc(Br)c1C [3-w] |
| 50.2 ± 8% | 486 nM | Cc1ccc(NC2=NC(N)=NC3(CCCCC3)N2)cc1 [3-m] |
| 108 ± 1.5% |  | CCOC(=O)c1cc(NC2=NC(N)=NC3(CCCCC3)N2)ccc1C [3-v] |
| 69.1 ± 2.7% | 476 nM | Cc1cc(C)cc(NC2=NC(N)=NC3(CCCCC3)N2)c1 [3-t] |
| 108% | 49.4 nM | CCOC(=O)c1cccc(NC2=NC(NC)=NC3(CCCCC3)N2)c1 [3-x, ethyl 3-(4-(methylamino)-1,3,5-triazaspiro[5.5]undeca-2,4-dien-2-ylamino)benzoate] |
| 109 ± 4.2% |  | CCOC(=O)c1ccc(NC2=NC(N)=NC3(CCCCC3)N2)cc1 [3-p] |
